This is an account of results in patent publication US20100056596A1, “RESISTANCE-REPELLENT RETROVIRAL PROTEASE INHIBITORS” (Sequoia Pharmaceuticals, priority 2004, published 2010).

Some results are limits rather than exact numbers.

In one test the test system is HIV-1 isolates, Mutant 8. Nature of the test: In vitro drug sensitivity of HIV-1 laboratory isolates, Mutant 8. Type of test: cell-based. The following applies: Human immunodeficiency virus 1, read-out: IC50 Mutant 8. On the procedure:
(§1) In Vitro Drug Sensitivity of HIV-1 Laboratory Isolates to PIs
(§2) The sensitivities of HIV-1 isolates against compounds of the invention were determined as previously described with minor modifications (Shiraska et al., Proc. Natl. Acad. Sci. USA, 92, 2398-2402 (1995)).

For a further test, the target named is HIV-1 protease Mutant 8 (Human immunodeficiency virus type 1, UniProt P04585). Nature of the test: Ki against HIV-1 protease Mutant 8. Type of test: biochemical.
Another test relates to HIV-1 isolates, Mutant 9. Nature of the test: In vitro drug sensitivity of HIV-1 laboratory isolates, Mutant 9. Type of test: cell-based. The following applies: Human immunodeficiency virus 1, read-out: IC50 Mutant 9. As for the experimental part:
as §1, §2

Another test relates to HIV-1 isolates, WT. In words: In vitro drug sensitivity of HIV-1 laboratory isolates, WT. The following applies: Human immunodeficiency virus 1. It counts as cell-based. As for the experimental part:
as §1, §2

For another test, the target named is HIV-1 protease Mutant 9 (Human immunodeficiency virus type 1, UniProt P04585). In words: Ki against HIV-1 protease Mutant 9. Type of test: biochemical.
For a further test, the target named is T1, wild type HIV-1 protease (Human immunodeficiency virus type 1 group M subtype B, UniProt P04585).
T1 construct: over 45 of the 99 amino acids of the HIV protease monomer
Nature of the test: Ki against wild type (WT) HIV-1 protease. Type of test: biochemical.

In general, IC50 refers to the concentration that gives 50% inhibition. Broadly, the Ki is the equilibrium dissociation constant of an inhibitor or competing ligand from its target. Read a high Ki as a looser hold on the target. Take `CC(C)CN(CC(O)C(Cc1ccccc1)NC(=O)OC1COC2OCCC12)S(=O)(=O)c1ccc2onc(CNCc3ccc4occc4c3)c2c1` (stereo not drawn) [Compound 248]: the half-inhibitory concentration (IC50) in the test on HIV-1 isolates, Mutant 8 came to 24 nM; in the test with HIV-1 isolates, Mutant 9, 54 nM; in the test with HIV-1 isolates, WT (HIV-1 isolate WT), 7.9 nM. In addition, the Ki is below 0.3 nM on HIV-1 protease Mutant 8 (HIV-1 protease Mutant 8), 0.33 nM on HIV-1 protease Mutant 9 (HIV-1 protease Mutant 9) and below 0.1 nM at wild type HIV-1 protease (wild type HIV-1 protease).

Regarding `Cc1n[nH]c2ccc(S(=O)(=O)N(CC(C)C)CC(O)C(Cc3ccccc3)NC(=O)OC3COC4OCCC34)cc12` (stereo not drawn) [Compound 301, {1-Benzyl-2-hydroxy-3-[isobutyl-(3-methyl-1H-indazole-5-sulfonyl)-amino]-propyl}-carbamic acid hexahydro-furo[2,3-b]furan-3-yl ester], the IC50 in the test with HIV-1 isolates, Mutant 8 was 70 nM; with HIV-1 isolates, Mutant 9, 80 nM; in the test with HIV-1 isolates, WT, 8 nM. The inhibition constant Ki is below 0.3 nM at HIV-1 protease Mutant 8 (Mutant 8), 0.23 nM on HIV-1 protease Mutant 9 (Mutant 9) and below 0.1 nM on wild type HIV-1 protease (WT).

In the case of `CCCC(C)Nc1n[nH]c2ccc(S(=O)(=O)N(CC(C)C)CC(O)C(Cc3ccccc3)NC(=O)OC3COC4OCCC34)cc12` (stereo not drawn) [Compound 303], the IC50 is 18 nM in the test with HIV-1 isolates, Mutant 8; 150 nM in the test on HIV-1 isolates, Mutant 9; 10 nM in the test on HIV-1 isolates, WT. For the same molecule, the inhibition constant (Ki) at HIV-1 protease Mutant 8 (Mutant 8) was below 0.3 nM; on HIV-1 protease Mutant 9 (Mutant 9), 0.73 nM; on wild type HIV-1 protease (WT), below 0.1 nM.

As for `CC(C)CN(CC(O)C(Cc1ccccc1)NC(=O)OC1COC2OCCC12)S(=O)(=O)c1ccc2[nH]nc(NC3CCCCC3)c2c1` (stereo not drawn) [Compound 304], the IC50 was 12 nM with HIV-1 isolates, Mutant 8; 100 nM with HIV-1 isolates, Mutant 9; 6.1 nM in the test on HIV-1 isolates, WT. Moreover, the figures for the inhibition constant (Ki) at HIV-1 protease Mutant 8 (Mutant 8), at HIV-1 protease Mutant 9 (Mutant 9) and on wild type HIV-1 protease (WT) were below 0.3 nM, 0.93 nM and below 0.1 nM, respectively.

For `CCCNc1n[nH]c2ccc(S(=O)(=O)N(CC(C)C)CC(O)C(Cc3ccccc3)NC(=O)OC3COC4OCCC34)cc12` (stereo not drawn) [Compound 305], the half-inhibitory concentration (IC50) in the test with HIV-1 isolates, Mutant 8 was found to be 30 nM; in the test with HIV-1 isolates, Mutant 9, 180 nM; in the test with HIV-1 isolates, WT, 16 nM. Also, the inhibition constant (Ki) at HIV-1 protease Mutant 8 (Mutant 8) was below 0.3 nM; on HIV-1 protease Mutant 9 (Mutant 9), 0.66 nM; on wild type HIV-1 protease (WT) it was below 0.1 nM.

With `CC(C)CN(CC(O)C(Cc1ccccc1)NC(=O)OC1COC2OCCC12)S(=O)(=O)c1ccc2[nH]nc(NCc3ccccc3)c2c1` (stereo not drawn) [Compound 306], the IC50 came out at 35 nM with HIV-1 isolates, Mutant 8; 95 nM with HIV-1 isolates, Mutant 9; 5.5 nM with HIV-1 isolates, WT. In addition, the Ki was below 0.3 nM at HIV-1 protease Mutant 8 (Mutant 8), 1.1 nM on HIV-1 protease Mutant 9 (Mutant 9) and 0.1 nM on wild type HIV-1 protease (WT).

For `CCC(CC)Nc1n[nH]c2ccc(S(=O)(=O)N(CC(C)C)CC(O)C(Cc3ccccc3)NC(=O)OC3COC4OCCC34)cc12` (stereo not drawn) [Compound 307], the half-maximal inhibitory concentration (IC50) with HIV-1 isolates, Mutant 8 is 24 nM; with HIV-1 isolates, Mutant 9 it was 110 nM; with HIV-1 isolates, WT it was 7.5 nM. For the same molecule, the Ki on HIV-1 protease Mutant 8 (Mutant 8) was below 0.3 nM; at HIV-1 protease Mutant 9 (Mutant 9), 0.55 nM; at wild type HIV-1 protease (WT), below 0.1 nM.

Regarding `CCCCNc1n[nH]c2ccc(S(=O)(=O)N(CC(C)C)CC(O)C(Cc3ccccc3)NC(=O)OC3COC4OCCC34)cc12` (stereo not drawn) [Compound 308], the IC50 in the test with HIV-1 isolates, Mutant 8 turned out to be 30 nM; in the test on HIV-1 isolates, Mutant 9 it was 310 nM; with HIV-1 isolates, WT, 8 nM. In addition, the Ki was below 0.3 nM on HIV-1 protease Mutant 8 (Mutant 8), 1.8 nM at HIV-1 protease Mutant 9 (Mutant 9) and below 0.1 nM on wild type HIV-1 protease (WT).

For the molecule `CC(C)CN(CC(O)C(Cc1ccccc1)NC(=O)OC1COC2OCCC12)S(=O)(=O)c1ccc2[nH]nc(NCC(C)(C)C)c2c1` (stereo not drawn) [Compound 309], the half-maximal inhibitory concentration (IC50) was 25 nM in the test with HIV-1 isolates, Mutant 8; 250 nM in the test on HIV-1 isolates, Mutant 9; 4 nM in the test with HIV-1 isolates, WT. Besides, the figures for the Ki at HIV-1 protease Mutant 8 (Mutant 8), on HIV-1 protease Mutant 9 (Mutant 9) and at wild type HIV-1 protease (WT) were below 0.3 nM, 3.5 nM and 0.13 nM, respectively.

Regarding `CCOC(=O)CNc1n[nH]c2ccc(S(=O)(=O)N(CC(C)C)CC(O)C(Cc3ccccc3)NC(=O)OC3COC4OCCC34)cc12` (stereo not drawn) [Compound 310], the 50% inhibitory concentration (IC50) with HIV-1 isolates, Mutant 8 turned out to be 70 nM; in the test on HIV-1 isolates, Mutant 9 it was 60 nM; with HIV-1 isolates, WT, 50 nM. Moreover, the inhibition constant (Ki) at HIV-1 protease Mutant 8 (Mutant 8) is below 0.3 nM; at HIV-1 protease Mutant 9 (Mutant 9), 0.19 nM; on wild type HIV-1 protease (WT), below 0.1 nM.
